{"source": "patent US9187507B2", "about": "(Institute of Pharmacology and Toxicology Academy of …, priority 2009, dated 2015)", "key": {"[1]": {"system": "hepatitis B virus", "conditions": "clinical; cited from earlier work"}, "[2]": {"conditions": "human body, after MCC-478; cited from earlier work"}, "[3]": {"experiment": "Cytotoxicity by MTT method", "type": "cell-based", "conditions": "human; Hep G2 cells; MTT on the 3rd day of adding drugs; absorption at 540 nm", "description": "The cytotoxicity of the desired compounds were measured by MTT method: Hep G2 cells were cultured in a DMEM culture medium containing 10% bovine calf serum, incubated in a 5% CO2 incubator, then the cells were inoculated in 96-well plate, cell count 5×10^4, continuously cultured for 3 days, added with new culture media with different drug concentrations, in which 3 parallel wells were set; on the 3rd day of adding drugs, MTT was added to 7.5 mg/ml, the culture was kept for further 2 h, the supernatant was discarded, isopropanol containing 10% […] was added, 120 μl/well, then added 0.4 μl/well again, enzyme-linked meter was used to measure the absorption at 540 nm, calculate 50% inhibition concentration, i.e., CC50 value."}, "[4]": {"system": "HBV DNA", "experiment": "Test of in vitro activity against HBV: inhibition of HBV DNA in Hep G 2.2.15 cells by quantitative real-time fluorescent PCR", "type": "cell-based", "conditions": "Hepatitis B virus, HepG2.2.15", "description": "By an in vitro test method of using Hep G 2.2.15 cells, the inhibition effects and cytotoxicity of the desired compounds to HBV DNA were measured.\nBy using quantitative and real-time fluorescent PCR method, the inhibition effects of the desired compounds to HBV DNA were measured: Hep G 2.2.15 cells were cultured in a DMEM culture medium containing 10% bovine calf serum, incubated in a 5% CO2 incubator, then the cells were inoculated in 96-well plate, cell count 3×10^4, continuously cultured, when the cell density reached about 80%, the used culture medium was discarded, and new culture media with different drug concentrations were added, in which 3 parallel wells were set; the culture media were exchanged every three days. On the 10th day of using drug, 100 μl of supernatant was taken and measured to determine HBV DNA content by quantitative PCR method, calculate 50% inhibition concentration, i.e., IC50 value."}, "[5]": {"system": "HBV", "conditions": "anti-HBV, cited from earlier work"}, "[6]": {"system": "HBV strains with resistance to lamivudine", "conditions": "cited from earlier work"}, "[7]": {"system": "other retro viruses such as HIV and HSV", "conditions": "cited from earlier work"}}, "note": "Where two headings read alike, the source gives them in different places.", "data": [{"molecule": "interferon", "values": [{"measurement": "effective rate of treatment", "setting": "[1]", "result": "30-50%"}]}, {"molecule": "COc1ccc(Sc2nc(N)nc3c2ncn3CCOCP(=O)(O)O)cc1", "note": "[Compound 602076, 2-amino-6-(4-methoxyphenylthio)-9-(2-phosphonomethoxyethyl)-purine]", "values": [{"measurement": "concentration of the free acid 602076 in blood relative to that of the monoester 602074", "setting": "[2]", "result": "1/10"}]}, {"molecule": "COc1ccc(Sc2nc(N)nc3c2ncn3CCOCP(=O)(OCOC(=O)C(C)C)OCOC(=O)C(C)C)cc1", "note": "[Compound I2]", "values": [{"measurement": "CC50 at 3 days", "setting": "[3]", "result": "> 1000", "unit": "µM"}, {"measurement": "IC50", "setting": "[4]", "result": 0.02, "unit": "µM"}]}, {"molecule": "COc1ccc(Sc2nc(N)nc3c2ncn3CCOCP(=O)(OCOC(=O)OCC(C)C)OCOC(=O)OCC(C)C)cc1", "note": "[Compound I9]", "values": [{"measurement": "CC50 at 3 days", "setting": "[3]", "result": "> 1000", "unit": "µM"}, {"measurement": "IC50", "setting": "[4]", "result": 0.021, "unit": "µM"}]}, {"molecule": "COc1ccc(Sc2nc(N)nc3c2ncn3CCOCP(=O)(OCOC(=O)C2CCCCC2)OCOC(=O)C2CCCCC2)cc1", "note": "[Compound I4]", "values": [{"measurement": "CC50 at 3 days", "setting": "[3]", "result": "> 1000", "unit": "µM"}, {"measurement": "IC50", "setting": "[4]", "result": 0.012, "unit": "µM"}]}, {"molecule": "COc1ccc(Sc2nc(N)nc3c2ncn3CCOCP(=O)(OCC(F)(F)F)OCC(F)(F)F)cc1", "note": "[MCC-478]", "values": [{"measurement": "in vitro activity, times that of adefovir", "setting": "[5]; relative to adefovir", "result": "10-20 times"}, {"measurement": "in vitro activity, times that of lamivudine", "setting": "[5]; relative to lamivudine", "result": "20-80 times"}, {"measurement": "inhibition effects on HBV strains with resistance to lamivudine", "setting": "[6]", "result": "has inhibition effects"}, {"measurement": "CC50 at 3 days", "setting": "[3]", "result": "> 1000", "unit": "µM"}, {"measurement": "activity against other retro viruses such as HIV and HSV", "setting": "[7]", "result": "no activity"}, {"measurement": "IC50", "setting": "[4]; Hep G 2.2.15 cells, HBV DNA content in supernatant by quantitative PCR on the 10th day of using drug, read-out: IC50", "result": 0.016, "unit": "µM"}]}, {"molecule": "COc1ccc(Sc2nc(N)nc3c2ncn3C[C@@H](C)OCP(=O)(OCOC(=O)OC(C)C)OCOC(=O)OC(C)C)cc1", "note": "[Compound I13]", "values": [{"measurement": "CC50 at 3 days", "setting": "[3]", "result": "> 1000", "unit": "µM"}, {"measurement": "IC50", "setting": "[4]", "result": 0.054, "unit": "µM"}]}, {"molecule": "COc1ccc(Sc2nc(N)nc3c2ncn3CCOCP(=O)(OCOC(=O)OC(C)C)OCOC(=O)OC(C)C)cc1", "note": "[Compound I8]", "values": [{"measurement": "CC50 at 3 days", "setting": "[3]", "result": "> 1000", "unit": "µM"}, {"measurement": "IC50", "setting": "[4]", "result": 0.005, "unit": "µM"}]}, {"molecule": "COc1ccc(Sc2nc(N)nc3c2ncn3CCOCP(=O)(OCOC(=O)OC2CCCCC2)OCOC(=O)OC2CCCCC2)cc1", "note": "[Compound I12]", "values": [{"measurement": "CC50 at 3 days", "setting": "[3]", "result": "> 1000", "unit": "µM"}, {"measurement": "IC50", "setting": "[4]", "result": 0.011, "unit": "µM"}]}, {"molecule": "COc1ccc(Sc2nc(N)nc3c2ncn3CCOCP(=O)(OCOC(=O)C(C)(C)C)OCOC(=O)C(C)(C)C)cc1", "note": "[Compound I3]", "values": [{"measurement": "CC50 at 3 days", "setting": "[3]", "result": "> 1000", "unit": "µM"}, {"measurement": "IC50", "setting": "[4]", "result": 0.015, "unit": "µM"}]}, {"molecule": "COc1ccc(Sc2nc(N)nc3c2ncn3C[C@@H](C)OCP(=O)(OCOC(=O)C(C)(C)C)OCOC(=O)C(C)(C)C)cc1", "note": "[Compound I5]", "values": [{"measurement": "CC50 at 3 days", "setting": "[3]", "result": "> 1000", "unit": "µM"}, {"measurement": "IC50", "setting": "[4]", "result": 0.006, "unit": "µM"}]}]}
